Structures are written as SMILES. Counter-ions that a name gives are not always drawn.

The results in this text go back to patent US5801176A, “Substituted benzothienylpiperazines and their use” (Hoechst Marion Roussel, Inc., priority 1997, dated 1998).

One test has as its system apomorphine climbing. The test is described as follows: climbing mice assay (apomorphine-induced climbing, antipsychotic activity). The class given is in vivo. The following applies: Mus musculus, 0.5 h; 20 mg/kg, ip @ 30 (min before apomorphine 1.5 mg/kg sc); read-out: CLIMBING MOUSE % (percent response, climbing score vs. control set to 100%). The protocol:
The compounds of the present invention are useful for treating psychoses by virtue of their ability to elicit an antipsychotic response in mammals. Antipsychotic activity is determined in the climbing mice assay by a method similar to those described by P. Protais, et al., Psychopharmacol.,50:1 (1976) and B. Costall, Eur. J. Pharmacol., 50:39 (1978).
Subject […] male mice (23-27 grams) are group-housed under standard laboratory conditions. The mice are individually placed in wire mesh stick cages (4"×10") and are allowed one hour for adaption and exploration of the new environment. Then apomorphine is injected subcutaneously at 1.5 mg/kg, a dose causing climbing in all subjects for 30 minutes. Compounds to be tested for antipsychotic activity are injected intraperitioneally or given by oral doses at various time intervals., e.g. 30 minutes, 60 minutes, etc., prior to the apomorphine challenge at a screening dose of 10-60 mg/kg.
For evaluation of climbing, 3 readings are taken at 10, 20 and 30 minutes after apomorphine administration according to the following scale:
4 paws on bottom (no climbing)
2 paws on the wall (rearing)
4 paws on the wall (full climb)
Mice consistently climbing before the injection of apomorphine are discarded.
With full-developed apomorphine climbing, the animals are hanging on to the cage walls, rather motionless, over long periods of time. By contrast, climbs due to mere motor stimulation usually only last a few seconds.
The climbing scores are individually totaled (maximal score: 6 per mouse over 3 readings) and the total score of the control group (vehicle intraperitoneally-apomorphine subcutaneously) is set to 100%. The percent response at a dose of 20 mg/kg. or the ED50 values with 95% confidence limits, calculated by a linear regression analysis, of some of the compounds of the present invention as well as a standard antipsychotic agent are presented in Table 1.
Consider `O=C(NCCCCN1CCN(c2csc3cc(F)ccc23)CC1)c1cccs1` [N-[4-[4-(6-Fluorobenzo[b]thien-3-yl)-1-piperazinyl]butyl]-2-thiophenecarboxamide (Z)-2-butenedioate (1:1)], for which the change in vivo at 20 mg/kg was -100%.

Take `Fc1ccc2c(N3CCN(CCCCN4Cc5ccccc5C4)CC3)csc2c1`: the change in vivo at 20 mg/kg was -33%.

For the compound `O=C1c2ccccc2C(=O)N1CCN1CCN(c2csc3cc(F)ccc23)CC1` [N-[2-[4-(6-Fluorobenzo[b]thien-3-yl)-1-piperazinyl]-ethyl]-phthalimide], the change in vivo at 20 mg/kg was -25%.

In the case of `O=C1c2ccccc2C(=O)N1CCCCN1CCN(c2csc3cc(F)ccc23)CC1` [2-[4-[4-(6-Fluorobenzo[b]thien-3-yl)-1-piperazinyl]butyl]-1H-isoindole-1,3(2H)-dione], the change in vivo at 20 mg/kg is -100%.

For `O=C1c2ccccc2C(O)N1CCN1CCN(c2csc3cc(F)ccc23)CC1` (stereo not shown) [2-[2-[4-(6-Fluorobenzo[b]thien-3-yl)-1-piperazinyl]-ethyl-2,3-dihydro-3-hydroxy-1H-isoindol-1-one], the change in vivo at 20 mg/kg was -43%.

Turning to `O=C(NCCCCN1CCN(c2csc3cc(F)ccc23)CC1)C12CC3CC(CC(C3)C1)C2` [N-[4-[4-(6-Fluorobenzo[b]thien-3-yl)-1-piperazinyl]butyl]-adamantane-1-carboxamide maleate], the change in vivo at 20 mg/kg was -79%.

For `CC(=O)N(CCCCN1CCN(c2csc3cc(F)ccc23)CC1)C(=O)C(C)C` [N-Acetyl-N-[4-[4-(6-fluorobenzo[b]thien-3-yl)-1-piperazinyl]butyl]-2-methyl-propanamide], the change in vivo at 20 mg/kg is -75%.

On to `NCCCCN1CCN(c2csc3cc(F)ccc23)CC1` [4-(6-Fluorobenzo[b]thien-3-yl)-1-piperazinebutanamine (Z)-2-butenedioate (1:2)], for which the change in vivo at 20 mg/kg is -34%.

The test is the same for the next values; noted with them: Mus musculus, 0.5 h; ip @ 30 (min before apomorphine 1.5 mg/kg sc); parentheses = 95% confidence limits.
With `CC(C)C(=O)NCCCCN1CCN(c2csc3cc(F)ccc23)CC1` [N-[4-[4-(6-fluorobenzo[b]thien-3-yl)-1-piperazinyl]butyl]-2-methyl-propanamide], the ED50 (in general, the dose at which the effect has come halfway, by size or by number of responders) came out at 1.3 mg/kg.

For `CC(=O)NCCCCN1CCN(c2csc3cc(F)ccc23)CC1` [N-[4-[4-(6-Fluorobenzo[b]thien-3-yl)-1-piperazinyl]butyl-acetamide], the 50% effective dose (ED50) worked out at 1.35 mg/kg.
